{
  "source": "patent US20090186110A1",
  "about": "“GUAVA EXTRACT” (priority 2005, published 2009)",
  "biological_target": "T1, DP-IV (Homo sapiens, UniProt P27487)",
  "T1 construct": "DP-IV also exists as a soluble circulating form in plasma; from tissue; host or cells: human plasma",
  "T1 sequence (P27487 39-766 limits assumed)": "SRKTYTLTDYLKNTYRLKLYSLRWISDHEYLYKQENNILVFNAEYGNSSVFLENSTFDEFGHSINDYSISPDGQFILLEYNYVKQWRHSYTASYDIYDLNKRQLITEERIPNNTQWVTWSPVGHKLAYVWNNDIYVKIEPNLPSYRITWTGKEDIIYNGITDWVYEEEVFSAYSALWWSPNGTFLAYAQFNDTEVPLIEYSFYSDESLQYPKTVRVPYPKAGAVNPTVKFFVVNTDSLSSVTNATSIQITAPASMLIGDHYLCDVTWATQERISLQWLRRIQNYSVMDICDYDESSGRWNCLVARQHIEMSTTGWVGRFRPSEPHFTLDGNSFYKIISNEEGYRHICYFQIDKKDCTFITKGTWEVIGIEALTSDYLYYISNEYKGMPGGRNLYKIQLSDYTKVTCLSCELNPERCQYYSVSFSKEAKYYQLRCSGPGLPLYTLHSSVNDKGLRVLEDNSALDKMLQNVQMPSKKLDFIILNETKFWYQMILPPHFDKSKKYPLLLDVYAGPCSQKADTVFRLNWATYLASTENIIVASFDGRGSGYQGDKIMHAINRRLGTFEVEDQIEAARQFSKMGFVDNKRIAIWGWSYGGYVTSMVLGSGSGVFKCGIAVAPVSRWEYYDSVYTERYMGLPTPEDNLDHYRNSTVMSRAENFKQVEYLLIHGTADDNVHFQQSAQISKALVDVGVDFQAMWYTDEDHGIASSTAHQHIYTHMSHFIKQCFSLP",
  "assay": "DP-IV activity colorimetric assay (Gly-Pro-4-NA substrate, human plasma)",
  "assay_type": "biochemical",
  "method": "DP-IV activity was measured by a colorimetric assay.\nDP-IV activity is expressed as the linear change in optical density over 20 min (Δ Abs/min).",
  "data": [
    {"molecule": "O=c1c(O[C@@H]2OC[C@H](O)[C@H](O)[C@H]2O)c(-c2ccc(O)c(O)c2)oc2cc(O)cc(O)c12", "note": "[guaijaverin]", "values": [
      {"measurement": "DP-IV inhibition (result in words)", "result": "clear, dose dependent inhibition of DP-IV"},
      {"measurement": "concentration that yielded a DP-IV inhibition of around 50%", "setting": "guaijaverin in HEPES buffer, tested 70-280 μg/mL", "result": "140-210 μg/mL test assay"}
    ]}
  ]
}
